In patent US20250040542A1, “USE OF PHENYLPHENALENONES AS A SELECTIVE HERBICIDE” (UNIVERSITE DE LIMOGES, priority 2021, published 2025):

Assays:
[1] = Photodegradation test, exposed to sunlight; format: physicochemical; conditions: 100 μM in distilled water
Protocol: A photodegradation test was conducted on 100 μM anigorufone exposed to sunlight. An anigorufone solution was prepared at the studied dose (100 μM) from a stock solution in 50 ml of distilled water in glass flasks. The flasks were placed outside and exposed to full sunlight. The experiment was carried out three times in June 2022 under light conditions corresponding to sunny/partially clear skies. 1 ml of the solution was run through UV-Vis spectrometry and photodegradation was tracked by the decrease in absorbance at 370 nm. […]

[2] = test system: Tomato Lycopersicon esculentum var Marmande; test: Greenhouse foliar spraying on plant of interest; format: in vivo
Protocol: (§1) A 5 mM stock solution was prepared in 50% v/v ethanol (96°). Next, the solution was further diluted in distilled water to obtain 10 μM for in vitro testing and 50 μM, 75 μM and 100 μM for greenhouse testing. 0.1% v/v of the surfactant IGEPAL-Co 630 was added to the solution in order to obtain a product ready for spraying on seedlings in the greenhouse.
(§2) The different seeds are grown in a greenhouse in commercial potting soil (Terreau Universel, Fertiligene). The seeds were sown in the greenhouse under controlled temperature and humidity conditions (the temperature varies between 15° C. and 30° C. depending on the season, and the relative humidity varies from 50 to 70%). 6 isolated treatments (approximately 10 sprays each) spaced 48 hours apart were carried out one week after germination.
(§3) After 7 weeks, the seedlings were harvested. The roots and aboveground parts were separated and the roots were washed with distilled water and dried on absorbent paper. These materials were then stored at −20° C.
(§4) The formulation in which the active ingredient is 50 μM Anigorufone was tested on a barley+poppy system and on tomato plants, with two treatments spaced 48 hours apart.
(§5) Tests in a greenhouse were carried out. All plants were exposed to 6 treatments with 3 increasing doses spaced 48 hours apart: C1 (50 μM or 13.6 mg/l), C2 (75 μM or 20.4 mg/l), C3 (100 μM or 27.2 mg/l). Harvesting was conducted 7 weeks after germination.

[3] = test system: Dandelion (Taraxacum officinale); test: Greenhouse foliar spraying on weed; format: in vivo; design: key: least resistant +; most resistant ++++++++; conditions: 6 treatments spaced 48 hours apart, C1 50 μM, C2 75 μM, C3 100 μM, harvest 7 weeks after germination; ranking among 8 weeds
Protocol: as §1, §2, §3, §5

Poppy (Papaver rhoeas) = test: Greenhouse foliar spraying on weed; format: in vivo; design: key to Resistance (degree of resistance of the weed to the treatments): least resistant +; most resistant ++++++++
Protocol: as §1, §2, §3, §4
Tests in a greenhouse were carried out. All plants were exposed to 6 treatments with 3 increasing doses spaced 48 hours apart: C1 (50 μM or 13.6 mg/l), C2 (75 μM or 20.4 mg/l), C3 (100 μM or 27.2 mg/l). […]

Onion (Allium cepa) = test: Greenhouse foliar spraying on plant of interest; format: in vivo; conditions: 6 treatments spaced 48 hours apart, C1 50 μM, C2 75 μM, C3 100 μM, harvest 7 weeks after germination
Protocol: as §1, §2, §3, §5

[4] = test system: Sunflower (Helianthus annuus); test: Greenhouse foliar spraying on plant of interest; format: in vivo; conditions: 6 treatments spaced 48 hours apart
Protocol: as §1, §2, §3, §5

Wheat (Triticum sativum) = test: Greenhouse foliar spraying on plant of interest; format: in vivo; conditions: 6 treatments spaced 48 hours apart, C1 50 μM, C2 75 μM, C3 100 μM, harvest 7 weeks after germination
Protocol: as §1, §2, §3, §5

Turnip (Brassica napa) = test: Greenhouse foliar spraying on plant of interest; format: in vivo; conditions: 6 treatments spaced 48 hours apart, C1 50 μM, C2 75 μM, C3 100 μM, harvest 7 weeks after germination
Protocol: as §1, §2, §3, §5

Corn (Zea mays) = test: Greenhouse foliar spraying on plant of interest; format: in vivo; conditions: 6 treatments spaced 48 hours apart, C1 50 μM, C2 75 μM, C3 100 μM, harvest 7 weeks after germination
Protocol: as §1, §2, §3, §5

[5] = test system: Spinach (Spinacia oleracea); test: Greenhouse foliar spraying on plant of interest; format: in vivo; conditions: 6 treatments spaced 48 hours apart, C1 50 μM, C2 75 μM, C3 100 μM, harvest 7 weeks after germination
Protocol: as §1, §2, §3, §5

Fishing worms (maggots) = test: Toxicity test on fishing worms (maggots); format: in vivo
Protocol: Fishing worms (maggots) were spray treated with 100 μM (27.2 mg/L) anigorufone. 30 fishing worms were cultured per petri dish and 10 sprays were performed per dish. The fishing worms were cultured under photoperiod conditions (16 h light/8 h dark); 8000 Lux; 22° C.). The experiment was conducted three times. […]

photodegradation ([1]; after 2 weeks): degraded almost completely
persistent molecules ([1]; after 72 hours, absorbance at 370 nm): 30-40%
growth of tomatoes compared to the control lot ([2]; 50 μM, two treatments spaced 48 hours apart, foliar spraying): does not affect their growth
growth of tomato plants two months after treatment ([2]; 50 μM, two treatments, two months after treatment, compared to untreated plants): normal growth
effect on tomato ([2]; 6 treatments spaced 48 hours apart, C1 50 μM, C2 75 μM, C3 100 μM, harvest 7 weeks after germination): no effect
effect on onion (Onion (Allium cepa)): no effect
effect on sunflower ([4]; C1 50 μM, C2 75 μM, C3 100 μM, harvest 7 weeks after germination): no effect
effect on wheat (Wheat (Triticum sativum)): no effect
effect on turnip (Turnip (Brassica napa)): no effect
effect on corn (Corn (Zea mays)): no effect
effect on spinach [5]: no effect
Compound: O=C1C(O)=Cc2cccc3ccc(-c4ccccc4)c1c23 [Anigorufone, 2-hydroxy-9-phenylphenalenone]
Resistance (degree of resistance of the weed to the treatments) [3]: ++++++++
herbicidal effect on poppy (Poppy (Papaver rhoeas); 50 μM, two treatments spaced 48 hours apart, foliar spraying, 17-day-old seedlings, barley+poppy system): dead
Resistance (degree of resistance of the weed to the treatments) (Poppy (Papaver rhoeas); 6 treatments spaced 48 hours apart, C1 50 μM, C2 75 μM, C3 100 μM, harvest 7 weeks after germination, ranking among 8 weeds): +
flowering of sunflowers ([4]; treated with C1 (50 μM) and C2 (75 μM)): flowering induction
viability rate of the maggots compared to the control conditions (Fishing worms (maggots); spray treated with 100 μM (27.2 mg/L), 10 sprays per dish, 30 worms per dish): remains constant
effects on fishing worms (Fishing worms (maggots); tested at 100 μM (27.2 mg/L), spray): no effects
